The data set relates to rodent lifetime carcinogenesis bioassay, tumor incidence TD50. Nature of the data set: chronic cancer bioassays in animals – CPDB, compiled studies (AID 1745844). The settings on record: in feed.

Values joined by “and” are separate entries in the source; they are usually repeats but may differ in a detail not shown here. Identical values can stand only once. Active and inactive are the calls of the source. No rule for the calls is given here.

Turning to `ClC1=C(Cl)C2(Cl)C3C(Cl)C(Cl)CC3C1(Cl)C2(Cl)Cl` (stereo not given), the TD50 (mouse, strain B6C3F1, females, site: any site (literature study), lesion: several types, types named in the paper, dosed 80 weeks, study length 90 weeks) is 5.16 mg/kg/day; the TD50 (mouse, strain B6C3F1, females, site: liver, lesion: hepatocellular adenoma + hepatocellular carcinoma + neoplastic nodule, dosed 80 weeks, study length 90 weeks) worked out at 4.89 mg/kg/day; the TD50 (mouse, strain B6C3F1, females, site: liver, lesion: hepatocellular carcinoma, dosed 80 weeks, study length 89 weeks) is 5.28 mg/kg/day; the TD50 (mouse, strain B6C3F1, females, site: liver, lesion: hepatocellular carcinoma, dosed 80 weeks, study length 90 weeks) was 4.89 mg/kg/day; the TD50 (mouse, strain B6C3F1, females, site: lung, lesion: alveolar/bronchiolar adenoma + alveolar/bronchiolar carcinoma, dosed 80 weeks, study length 90 weeks) was found to be 228 mg/kg/day; the TD50 (mouse, strain B6C3F1, males, site: any site (literature study), lesion: several types, types named in the paper, dosed 80 weeks, study length 90 weeks) stood at 2.31 mg/kg/day. The TD50 is 2.15 mg/kg/day (mouse, strain B6C3F1, males, site: liver, lesion: hepatocellular adenoma + hepatocellular carcinoma + neoplastic nodule, dosed 80 weeks, study length 90 weeks); 0.903 mg/kg/day (mouse, strain B6C3F1, males, site: liver, lesion: hepatocellular adenoma, dosed 60 weeks, study length 61 weeks); 0.727 mg/kg/day (mouse, strain B6C3F1, males, site: liver, lesion: hepatocellular adenoma, dosed 60 weeks, study length 72 weeks); 1.96 mg/kg/day (mouse, strain B6C3F1, males, site: liver, lesion: hepatocellular adenoma, dosed 72 weeks, study length 72 weeks); 1.91 mg/kg/day (mouse, strain B6C3F1, males, site: liver, lesion: hepatocellular carcinoma, dosed 60 weeks, study length 61 weeks); 1.49 mg/kg/day (mouse, strain B6C3F1, males, site: liver, lesion: hepatocellular carcinoma, dosed 60 weeks, study length 68 weeks). Moreover, the TD50 reads like this: (mouse, strain B6C3F1, males, site: liver, lesion: hepatocellular carcinoma, dosed 60 weeks, study length 72 weeks) 2.67 mg/kg/day; (mouse, strain B6C3F1, males, site: liver, lesion: hepatocellular carcinoma, dosed 68 weeks, study length 68 weeks) 0.878 mg/kg/day; (mouse, strain B6C3F1, males, site: liver, lesion: hepatocellular carcinoma, dosed 72 weeks, study length 72 weeks) 2.96 mg/kg/day; (mouse, strain B6C3F1, males, site: liver, lesion: hepatocellular carcinoma, dosed 80 weeks, study length 89 weeks) 2.48 mg/kg/day; (mouse, strain B6C3F1, males, site: liver, lesion: hepatocellular carcinoma, dosed 80 weeks, study length 90 weeks) 2.15 mg/kg/day; (mouse, strain B6C3F1, males, site: liver, lesion: several types, types named in the paper, dosed 60 weeks, study length 61 weeks) 0.583 mg/kg/day. For the same compound, the TD50 is, setting by setting: (mouse, strain B6C3F1, males, site: liver, lesion: several types, types named in the paper, dosed 72 weeks, study length 72 weeks) 1.68 mg/kg/day; (mouse, strain B6C3F1, males, site: lung, lesion: alveolar/bronchiolar adenoma + alveolar/bronchiolar carcinoma, dosed 80 weeks, study length 90 weeks) 656 mg/kg/day; (mouse, strain C57BL/10J, males, site: liver, lesion: several types, types named in the paper, dosed 104 weeks, study length 104 weeks) 13.1 mg/kg/day; (mouse, strain Charles River CD1, females, site: liver, lesion: hepatoma, dosed 78 weeks, study length 78 weeks) 71.8 mg/kg/day; (mouse, strain Charles River CD1, females, site: liver, lesion: nodular hyperplasia, dosed 78 weeks, study length 78 weeks) 1.78 mg/kg/day; (mouse, strain Charles River CD1, males, site: liver, lesion: nodular hyperplasia, dosed 78 weeks, study length 78 weeks) 1.45 mg/kg/day. Besides, the TD50 is 2.33 mg/kg/day (mouse, strain D2B6F1 mice, males, site: liver, lesion: hepatocellular adenoma, dosed 60 weeks, study length 61 weeks); 1.29 mg/kg/day (mouse, strain D2B6F1 mice, males, site: liver, lesion: hepatocellular adenoma, dosed 69 weeks, study length 69 weeks); 4.98 mg/kg/day (mouse, strain D2B6F1 mice, males, site: liver, lesion: hepatocellular adenoma, dosed 87 weeks, study length 87 weeks); 6.09 mg/kg/day (mouse, strain D2B6F1 mice, males, site: liver, lesion: hepatocellular carcinoma, dosed 60 weeks, study length 61 weeks); 3.31 mg/kg/day (mouse, strain D2B6F1 mice, males, site: liver, lesion: hepatocellular carcinoma, dosed 69 weeks, study length 69 weeks); 5.21 mg/kg/day (mouse, strain D2B6F1 mice, males, site: liver, lesion: hepatocellular carcinoma, dosed 87 weeks, study length 87 weeks). In addition, the TD50 runs as follows: (mouse, strain D2B6F1 mice, males, site: liver, lesion: several types, types named in the paper, dosed 60 weeks, study length 61 weeks) 1.93 mg/kg/day; (mouse, strain D2B6F1 mice, males, site: liver, lesion: several types, types named in the paper, dosed 69 weeks, study length 69 weeks) 1.03 mg/kg/day; (mouse, strain D2B6F1 mice, males, site: liver, lesion: several types, types named in the paper, dosed 87 weeks, study length 87 weeks) 3.83 mg/kg/day; (mouse, strain ICR, females, site: liver, lesion: hepatocellular adenoma, dosed 106 weeks, study length 106 weeks) 19.3 mg/kg/day; (mouse, strain ICR, females, site: liver, lesion: hepatocellular carcinoma, dosed 106 weeks, study length 106 weeks) 60 mg/kg/day; (mouse, strain ICR, females, site: liver, lesion: several types, types named in the paper, dosed 106 weeks, study length 106 weeks) 13.4 mg/kg/day. Moreover, the TD50 runs as follows: (mouse, strain ICR, males, site: all sites, lesion: hemangioma, dosed 106 weeks, study length 106 weeks) 4.01 mg/kg/day; (mouse, strain ICR, males, site: liver, lesion: hepatocellular adenoma, dosed 106 weeks, study length 106 weeks) 2.98 mg/kg/day; (mouse, strain ICR, males, site: liver, lesion: hepatocellular carcinoma, dosed 106 weeks, study length 106 weeks) 7.38 mg/kg/day; (mouse, strain ICR, males, site: liver, lesion: several types, types named in the paper, dosed 106 weeks, study length 106 weeks) 1.71 mg/kg/day; (rat, strain Fischer 344, females, site: mammary gland, lesion: fibroadenoma, dosed 130 weeks, study length 130 weeks) 0.32 mg/kg/day; (rat, strain Fischer 344, males, site: liver, lesion: hepatocellular adenoma, dosed 130 weeks, study length 130 weeks) 15.3 mg/kg/day. The TD50 is 18.4 mg/kg/day (inactive) (rat, strain Osborne-Mendel, females, site: any site (literature study), lesion: several types, types named in the paper, dosed 80 weeks, study length 109 weeks); 121 mg/kg/day (rat, strain Osborne-Mendel, females, site: liver, lesion: hepatocellular adenoma + hepatocellular carcinoma + neoplastic nodule, dosed 80 weeks, study length 109 weeks); 101 mg/kg/day (inactive) (rat, strain Osborne-Mendel, females, site: uterus, lesion: adenocarcinoma + sarcoma, dosed 80 weeks, study length 109 weeks); 42.5 mg/kg/day and 60.4 mg/kg/day (inactive) (rat, strain Osborne-Mendel, males, site: all sites, lesion: fibrous histiocytoma, dosed 80 weeks, study length 109 weeks); 21.6 mg/kg/day (rat, strain Osborne-Mendel, males, site: any site (literature study), lesion: several types, types named in the paper, dosed 80 weeks, study length 109 weeks); 41.6 mg/kg/day (inactive) (rat, strain Osborne-Mendel, males, site: thyroid gland, lesion: follicular-cell adenoma + follicular-cell carcinoma, dosed 80 weeks, study length 109 weeks). In addition, the carcinogen call (mouse, strain B6C3F1, males, site: liver, lesion: hepatocellular adenoma, dosed 60 weeks, study length 68 weeks) was “positive”; the carcinogen call (mouse, strain B6C3F1, males, site: liver, lesion: hepatocellular adenoma, dosed 68 weeks, study length 68 weeks) is “positive”; the carcinogen call (mouse, strain B6C3F1, males, site: liver, lesion: several types, types named in the paper, dosed 60 weeks, study length 68 weeks) was “positive”; the carcinogen call (mouse, strain B6C3F1, males, site: liver, lesion: several types, types named in the paper, dosed 68 weeks, study length 68 weeks) is “positive”.
As to `CCOP(=S)(OCC)SC1OCCOC1SP(=S)(OCC)OCC` (stereo not given), the TD50 by setting is: (mouse, strain B6C3F1, females, site: any site (literature study), lesion: several types, types named in the paper, dosed 78 weeks, study length 90 weeks) 2590 mg/kg/day (inactive); (mouse, strain B6C3F1, females, site: lung, lesion: alveolar/bronchiolar adenoma + alveolar/bronchiolar carcinoma, dosed 78 weeks, study length 90 weeks) 1820 mg/kg/day; (mouse, strain B6C3F1, males, site: lung, lesion: alveolar/bronchiolar adenoma + alveolar/bronchiolar carcinoma, dosed 78 weeks, study length 90 weeks) 628 mg/kg/day. For the same compound, the carcinogen call (mouse, strain B6C3F1, males, site: any site (literature study), lesion: several types, types named in the paper, dosed 78 weeks, study length 90 weeks) is “negative (inactive)”; the carcinogen call (rat, strain Osborne-Mendel, females, site: any site (literature study), lesion: several types, types named in the paper, dosed 78 weeks, study length 111 weeks) is “negative (inactive)”; the carcinogen call (rat, strain Osborne-Mendel, males, site: any site (literature study), lesion: several types, types named in the paper, dosed 78 weeks, study length 111 weeks) is “negative (inactive)”.
Turning to `NC(=O)c1ccccc1C(N)=O`, the carcinogen call is “negative (inactive)” (mouse, strain B6C3F1, females, site: any site (literature study), lesion: several types, types named in the paper, dosed 103 weeks, study length 103 weeks) and “negative (inactive)” (rat, strain Fischer 344, males, site: any site (literature study), lesion: several types, types named in the paper, dosed 106 weeks, study length 106 weeks). Also, the TD50 was 1.1e+06 mg/kg/day (inactive) (mouse, strain B6C3F1, males, site: any site (literature study), lesion: several types, types named in the paper, dosed 105 weeks, study length 105 weeks); 35800 mg/kg/day (mouse, strain B6C3F1, males, site: lung, lesion: alveolar/bronchiolar adenoma + alveolar/bronchiolar carcinoma, dosed 105 weeks, study length 105 weeks); 722 mg/kg/day (inactive) (rat, strain Fischer 344, females, site: any site (literature study), lesion: several types, types named in the paper, dosed 106 weeks, study length 106 weeks); 5390 mg/kg/day (rat, strain Fischer 344, females, site: liver, lesion: hepatocellular adenoma + hepatocellular carcinoma + neoplastic nodule, dosed 106 weeks, study length 106 weeks); 16600 mg/kg/day (rat, strain Fischer 344, males, site: liver, lesion: hepatocellular adenoma + hepatocellular carcinoma + neoplastic nodule, dosed 106 weeks, study length 106 weeks).

One may read the TD50 as the dose at which the toxic effect under study appears in half of the subjects.

Values taken from PubChem BioAssay AID1745844 (Carcinogenic Potency Database (CPDB), 2022).
